Our source for the Ki values is patent US20260124214A1, “HETEROCYCLIC COMPOUNDS FOR USE IN THE TREATMENT OF CANCER” (ARTIOS PHARMA LIMITED, priority 2021, published 2026).

Counter-ions that a name gives are not always drawn.

The assay has as its target T1, Human Polθ polymerase domain (aa1820-2590) (Homo sapiens, UniProt O75417).
T1 construct: Human Polθ polymerase domain (aa1820-2590) was expressed in E. Coli; made in house; host or cells: E. coli
T1 sequence (O75417 1820-2590): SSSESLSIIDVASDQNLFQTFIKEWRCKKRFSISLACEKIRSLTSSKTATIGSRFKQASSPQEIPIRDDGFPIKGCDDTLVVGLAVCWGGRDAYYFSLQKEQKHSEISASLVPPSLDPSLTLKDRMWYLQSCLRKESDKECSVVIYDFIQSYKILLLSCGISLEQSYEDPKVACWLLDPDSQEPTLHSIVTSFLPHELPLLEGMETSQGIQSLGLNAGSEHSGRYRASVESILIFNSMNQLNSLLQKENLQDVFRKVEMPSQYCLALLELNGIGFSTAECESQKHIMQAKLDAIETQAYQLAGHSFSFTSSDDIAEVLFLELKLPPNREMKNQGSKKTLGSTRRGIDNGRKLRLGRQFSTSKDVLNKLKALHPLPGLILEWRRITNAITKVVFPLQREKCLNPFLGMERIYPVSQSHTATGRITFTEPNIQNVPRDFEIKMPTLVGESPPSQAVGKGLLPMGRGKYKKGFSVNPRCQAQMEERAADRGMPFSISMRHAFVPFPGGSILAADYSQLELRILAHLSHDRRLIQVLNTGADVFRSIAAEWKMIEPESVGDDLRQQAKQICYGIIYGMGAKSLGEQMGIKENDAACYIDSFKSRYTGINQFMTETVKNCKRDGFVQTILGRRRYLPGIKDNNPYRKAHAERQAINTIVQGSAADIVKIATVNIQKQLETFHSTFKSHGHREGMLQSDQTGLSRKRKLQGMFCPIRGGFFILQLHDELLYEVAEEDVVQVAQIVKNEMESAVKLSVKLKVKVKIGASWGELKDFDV
Kind of assay: Polθ Polymerase Domain WT KI Assay (PicoGreen). As to conditions: 100 nM DNA substrate, 0.156 nM Polθ, initial rates vs inhibitor concentration. Format: biochemical. In short, it runs like this:
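E. coli-expressed human Polθ polymerase domain (aa1820-2590) on annealed DNA II Short/Long primer-template (1.2:1), in 25 mM Tris pH 7.5, NaCl, 5% glycerol, 0.01% Triton X-100, 0.1 mg/ml BSA, 1 mM DTT, 1% DMSO. EDTA-quenched timepoints to 180 min, PicoGreen fluorescence. Initial rates vs inhibitor concentration fitted four-parameter for KI.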
For `Cc1cc(C(F)(F)F)cc(N2C(=O)C[C@@H]3CN(CCN4CCOCC4)c4c(C)cccc4N(C)C(=O)[C@H]32)n1` [Example 44, (3aR,11aS)-6,10-Dimethyl-1-(6-methyl-4-(trifluoromethyl)pyridin-2-yl)-5-(2-morpholinoethyl)-1,3a,4,5,10,11a-hexahydro-2H-benzo[b]pyrrolo[2,3-f][1,4]diazocine-2,11(3H)-dione], the inhibition constant Ki is 349 pM.
`Cc1cc(C(F)(F)F)cc(N2C(=O)C[C@@H]3CN(CCN4CCN(C)[C@@H](C)C4)c4c(C)cccc4N(C)C(=O)[C@H]32)n1` [Example 46, (3aR,11aS)-5-(2-((S)-3,4-Dimethylpiperazin-1-yl)ethyl)-6,10-dimethyl-1-(6-methyl-4-(trifluoromethyl)pyridin-2-yl)-1,3a,4,5,10,11a-hexahydro-2H-benzo[b]pyrrolo[2,3-f][1,4]diazocine-2,11(3H)-dione dihydrochloride] displayed an inhibition constant Ki of 515 pM. The Ki values of the last two molecules are within 1.5-fold of each other.
Consider `Cc1cc(C(F)(F)F)cc(N2C(=O)C[C@@H]3CN(CCN4CCN(C)[C@H](C)C4)c4c(C)cccc4N(C)C(=O)[C@H]32)n1` [Example 47, (3aR,11aS)-5-(2-((R)-3,4-Dimethylpiperazin-1-yl)ethyl)-6,10-dimethyl-1-(6-methyl-4-(trifluoromethyl)pyridin-2-yl)-1,3a,4,5,10,11a-hexahydro-2H-benzo[b]pyrrolo[2,3-f][1,4]diazocine-2,11(3H)-dione dihydrochloride], for which the Ki turned out to be 605 pM.
For the molecule `Cc1cc(C(F)(F)F)cc(N2C(=O)C[C@@H]3CN(CCN4CCN(C)C[C@H]4C)c4c(C)cccc4N(C)C(=O)[C@H]32)n1` [Example 48, (3aR,11aS)-5-(2-((R)-2,4-Dimethylpiperazin-1-yl)ethyl)-6,10-dimethyl-1-(6-methyl-4-(trifluoromethyl)pyridin-2-yl)-1,3a,4,5,10,11a-hexahydro-2H-benzo[b]pyrrolo[2,3-f][1,4]diazocine-2,11(3H)-dione dihydrochloride], the Ki was found to be 307 pM.
`Cc1cc(C(F)(F)F)cc(N2C(=O)C[C@@H]3CN(CCN4CCN(C)C[C@@H]4C)c4c(C)cccc4N(C)C(=O)[C@H]32)n1` [Example 49, (3aR,11aS)-5-(2-((S)-2,4-Dimethylpiperazin-1-yl)ethyl)-6,10-dimethyl-1-(6-methyl-4-(trifluoromethyl)pyridin-2-yl)-1,3a,4,5,10,11a-hexahydro-2H-benzo[b]pyrrolo[2,3-f][1,4]diazocine-2,11(3H)-dione dihydrochloride] came in with an inhibitory constant (Ki) of 457 pM.
For `Cc1cc(C(F)(F)F)cc(N2C(=O)C[C@@H]3CN(CCN4CCN(C(=O)[C@@H](C)O)CC4)c4c(C)cccc4N(C)C(=O)[C@H]32)n1` [Example 51, (3aR,11aS)-5-(2-(4-((R)-2-Hydroxypropanoyl)piperazin-1-yl)ethyl)-6,10-dimethyl-1-(6-methyl-4-(trifluoromethyl)pyridin-2-yl)-1,3a,4,5,10,11a-hexahydro-2H-benzo[b]pyrrolo[2,3-f][1,4]diazocine-2,11(3H)-dione hydrochloride] the value was 928 pM; for `Cc1cc(C(F)(F)F)cc(N2C(=O)C[C@@H]3CN(CCN4CCN(C(=O)[C@H](C)O)CC4)c4c(C)cccc4N(C)C(=O)[C@H]32)n1` [Example 52, (3aR,11aS)-5-(2-(4-((S)-2-Hydroxypropanoyl)piperazin-1-yl)ethyl)-6,10-dimethyl-1-(6-methyl-4-(trifluoromethyl)pyridin-2-yl)-1,3a,4,5,10,11a-hexahydro-2H-benzo[b]pyrrolo[2,3-f][1,4]diazocine-2,11(3H)-dione hydrochloride], 957 pM.
`Cc1cc(C(F)(F)F)cc(N2C(=O)C[C@@H]3CN(CCN4CCN(CCO)CC4)c4c(C)cccc4N(C)C(=O)[C@H]32)n1` [Example 53, (3aR,11aS)-5-(2-(4-(2-Hydroxyethyl)piperazin-1-yl)ethyl)-6,10-dimethyl-1-(6-methyl-4-(trifluoromethyl)pyridin-2-yl)-1,3a,4,5,10,11a-hexahydro-2H-benzo[b]pyrrolo[2,3-f][1,4]diazocine-2,11(3H)-dione] displayed an inhibition constant (Ki) of 1230 pM.
As for `Cc1cc(C(F)(F)F)cc(N2C(=O)C[C@@H]3CN(CCN(C)CCO)c4c(C)cccc4N(C)C(=O)[C@H]32)n1` [Example 54, (3aR,11aS)-5-(2-((2-Hydroxyethyl)(methyl)amino)ethyl)-6,10-dimethyl-1-(6-methyl-4-(trifluoromethyl)pyridin-2-yl)-1,3a,4,5,10,11a-hexahydro-2H-benzo[b]pyrrolo[2,3-f][1,4]diazocine-2,11(3H)-dione], the inhibition constant Ki amounted to 5560 pM.
In turn, `CC(=O)N1CCN(CCN2C[C@H]3CC(=O)N(c4cc(C(F)(F)F)cc(C)n4)[C@@H]3C(=O)N(C)c3cccc(C)c32)CC1` [Example 55, (3aR,11aS)-5-(2-(4-Acetylpiperazin-1-yl)ethyl)-6,10-dimethyl-1-(6-methyl-4-(trifluoromethyl)pyridin-2-yl)-1,3a,4,5,10,11a-hexahydro-2H-benzo[b]pyrrolo[2,3-f][1,4]diazocine-2,11(3H)-dione hydrochloride] displayed an inhibition constant Ki of 891 pM.
With `Cc1cc(C(F)(F)F)cc(N2C(=O)C[C@@H]3CN(CCN4CC[C@@H](O)C4)c4c(C)cccc4N(C)C(=O)[C@H]32)n1` [Example 56, (3aR,11aS)-5-(2-((R)-3-Hydroxypyrrolidin-1-yl)ethyl)-6,10-dimethyl-1-(6-methyl-4-(trifluoromethyl)pyridin-2-yl)-1,3a,4,5,10,11a-hexahydro-2H-benzo[b]pyrrolo[2,3-f][1,4]diazocine-2,11(3H)-dione], the inhibitory constant (Ki) came out at 3120 pM.
`Cc1cc(C(F)(F)F)cc(N2C(=O)C[C@@H]3CN(CCN4CCN[C@@H](C)C4)c4c(C)cccc4N(C)C(=O)[C@H]32)n1` [Example 57, (3aR,11aS)-6,10-Dimethyl-1-(6-methyl-4-(trifluoromethyl)pyridin-2-yl)-5-(2-((S)-3-methylpiperazin-1-yl)ethyl)-1,3a,4,5,10,11a-hexahydro-2H-benzo[b]pyrrolo[2,3-f][1,4]diazocine-2,11(3H)-dione dihydrochloride]: affinity was put at a Ki of 564 pM.
Turning to `Cc1cc(C(F)(F)F)cc(N2C(=O)C[C@@H]3CN(CCN4C[C@H]5C[C@@H]4CN5)c4c(C)cccc4N(C)C(=O)[C@H]32)n1` [Example 58, (3aR,11aS)-5-(2-((1R,4R)-2,5-Diazabicyclo[2.2.1]heptan-2-yl)ethyl)-6,10-dimethyl-1-(6-methyl-4-(trifluoromethyl)pyridin-2-yl)-1,3a,4,5,10,11a-hexahydro-2H-benzo[b]pyrrolo[2,3-f][1,4]diazocine-2,11(3H)-dione dihydrochloride], the Ki came to 777 pM. The Ki values of the last two molecules are within 1.5-fold of each other.
For `Cc1cc(C(F)(F)F)cc(N2C(=O)C[C@@H]3CN(CCN4C[C@@H]5C[C@H]4CN5)c4c(C)cccc4N(C)C(=O)[C@H]32)n1` [Example 59, (3aR,11aS)-5-(2-((1S,4S)-2,5-Diazabicyclo[2.2.1]heptan-2-yl)ethyl)-6,10-dimethyl-1-(6-methyl-4-(trifluoromethyl)pyridin-2-yl)-1,3a,4,5,10,11a-hexahydro-2H-benzo[b]pyrrolo[2,3-f][1,4]diazocine-2,11(3H)-dione dihydrochloride] the value was 1130 pM.
For the molecule `Cc1cc(C(F)(F)F)cc(N2C(=O)C[C@@H]3CN(CCN4CC5CCC(C4)N5C)c4c(C)cccc4N(C)C(=O)[C@H]32)n1` [Example 60, (3aR,11aS)-6,10-Dimethyl-5-(2-(8-methyl-3,8-diazabicyclo[3.2.1]octan-3-yl)ethyl)-1-(6-methyl-4-(trifluoromethyl)pyridin-2-yl)-1,3a,4,5,10,11a-hexahydro-2H-benzo[b]pyrrolo[2,3-f][1,4]diazocine-2,11(3H)-dione dihydrochloride], the affinity, expressed as Ki, was 625 pM.
The figure for `Cc1cc(C(F)(F)F)cc(N2C(=O)C[C@@H]3CN(CCN4C[C@H]5C[C@@H]4CN5C)c4c(C)cccc4N(C)C(=O)[C@H]32)n1` [Example 61, (3aR,11aS)-6,10-Dimethyl-5-(2-((1R,4R)-5-methyl-2,5-diazabicyclo[2.2.1]heptan-2-yl)ethyl)-1-(6-methyl-4-(trifluoromethyl)pyridin-2-yl)-1,3a,4,5,10,11a-hexahydro-2H-benzo[b]pyrrolo[2,3-f][1,4]diazocine-2,11(3H)-dione dihydrochloride] is 759 pM.
For `Cc1cc(C(F)(F)F)cc(N2C(=O)C[C@@H]3CN(CCN4C[C@@H]5C[C@H]4CN5C)c4c(C)cccc4N(C)C(=O)[C@H]32)n1` [Example 62, (3aR,11aS)-6,10-Dimethyl-5-(2-((1S,4S)-5-methyl-2,5-diazabicyclo[2.2.1]heptan-2-yl)ethyl)-1-(6-methyl-4-(trifluoromethyl)pyridin-2-yl)-1,3a,4,5,10,11a-hexahydro-2H-benzo[b]pyrrolo[2,3-f][1,4]diazocine-2,11(3H)-dione dihydrochloride] the value was 1010 pM.

In general, Ki refers to a measure of affinity in units of concentration, obtained from inhibition or displacement. A higher Ki goes with lower affinity.
